Laboratory results taken from PubChem BioAssay AID248 (DTP/NCI, 2004).
Inconclusive results and toxic doses are left out.

Test system: L1210 leukemia ip in BDF1 mice, survival T/C
Experiment: NCI In Vivo Anticancer Drug Screen. Data for tumor model L1210 Leukemia (intraperitoneal) in B6D2F1 (BDF1) mice
Conditions: endpoint: mean survival time, higher = longer survival
In short: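 Tumor cells were implanted, animals were treated, and survival was followed. The result divides the treated measurement by the vehicle-control measurement.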

[1] = dose: 100.0 mg/kg/injection, schedule: Q04DX002 (ip), vehicle: saline with Tween-80
[2] = dose: 50.0 mg/kg/injection, schedule: Q01DX001 (ip), vehicle: carboxymethylcellulose (CMC)
[3] = dose: 100.0 mg/kg/injection, schedule: Q01DX001 (ip), vehicle: carboxymethylcellulose (CMC)
[4] = dose: 200.0 mg/kg/injection, schedule: Q01DX001 (ip), vehicle: carboxymethylcellulose (CMC)
[5] = dose: 400.0 mg/kg/injection, schedule: Q01DX001 (ip), vehicle: carboxymethylcellulose (CMC)
[6] = dose: 50.0 mg/kg/injection, schedule: Q01DX009 (ip), vehicle: Klucel (hydroxypropylcellulose) (HPC)
[7] = dose: 100.0 mg/kg/injection, schedule: Q04DX003 (ip), vehicle: Klucel (hydroxypropylcellulose) (HPC)
[8] = dose: 400.0 mg/kg/injection, schedule: Q04DX003 (ip), vehicle: Klucel (hydroxypropylcellulose) (HPC)
[9] = dose: 200.0 mg/kg/injection, schedule: Q04DX003 (ip), vehicle: Klucel (hydroxypropylcellulose) (HPC)

C(=C\c1ccccc1)/CSc1ncnc2nc[nH]c12
T/C (dose: 62.5 mg/kg/injection, schedule: Q01DX015 (ip), vehicle: saline): 106 % of control | T/C (dose: 125.0 mg/kg/injection, schedule: Q01DX015 (ip), vehicle: saline): 116 % of control | T/C (dose: 250.0 mg/kg/injection, schedule: Q01DX015 (ip), vehicle: saline): 104 % of control | T/C (dose: 500.0 mg/kg/injection, schedule: Q01DX015 (ip), vehicle: saline): 166 % of control

Cc1ccc(S(=O)(=O)N/N=C/C=C/c2ccccc2)cc1
T/C [1]: 103 % of control | T/C (dose: 200.0 mg/kg/injection, schedule: Q04DX002 (ip), vehicle: saline with Tween-80): 93 % of control | T/C (dose: 400.0 mg/kg/injection, schedule: Q04DX002 (ip), vehicle: saline with Tween-80): 93 % of control

CC(NP1(=O)OCC(C)([N+](=O)[O-])CO1)c1ccccc1 (stereo unspecified)
T/C [2]: 97 % of control | T/C [3]: 113 % of control | T/C [4]: 115 % of control | T/C [5]: 95 % of control

Cc1ccc(NC(=O)NCCCl)cc1
T/C [2]: 97 % of control | T/C [3]: 97 % of control | T/C [4]: 113 % of control | T/C [5]: 100 % of control

O=C(Cc1ccccc1)NCc1ccco1
T/C (dose: 25.0 mg/kg/injection, schedule: Q01DX009 (ip), vehicle: Klucel (hydroxypropylcellulose) (HPC)): 100 % of control | T/C [6]: 94 % of control | T/C (dose: 100.0 mg/kg/injection, schedule: Q04DX002 (ip), vehicle: Klucel (hydroxypropylcellulose) (HPC)): 90 % of control

Cc1ccc(S(=O)(=O)OC2C3OC(=S)OCC3OC3OC(C)(C)OC32)cc1 (stereo unspecified)
T/C (dose: 25.0 mg/kg/injection, schedule: Q04DX002 (ip), vehicle: saline): 104 % of control | T/C (dose: 50.0 mg/kg/injection, schedule: Q04DX002 (ip), vehicle: saline): 107 % of control | T/C (dose: 100.0 mg/kg/injection, schedule: Q04DX002 (ip), vehicle: saline): 107 % of control

CCOC(=O)C/C(C)=N\N=C(\C)C(=O)OCC
T/C (dose: 100.0 mg/kg/injection, schedule: Q01DX001 (ip), vehicle: saline): 98 % of control | T/C (dose: 200.0 mg/kg/injection, schedule: Q01DX001 (ip), vehicle: saline): 98 % of control | T/C (dose: 400.0 mg/kg/injection, schedule: Q01DX001 (ip), vehicle: saline): 92 % of control

CC(C)(C)OC(=O)NC(C(=O)O)C1=CCC=CC1 (stereo unspecified)
T/C [7]: 94 % of control | T/C [8]: 102 % of control

Cc1ccc(S(=O)(=O)/C=C\S(=O)(=O)c2ccc(C)cc2)cc1
T/C (dose: 12.5 mg/kg/injection, schedule: Q01DX009 (ip), vehicle: saline): 98 % of control | T/C (dose: 25.0 mg/kg/injection, schedule: Q01DX009 (ip), vehicle: saline): 105 % of control | T/C (dose: 25.0 mg/kg/injection, schedule: Q04DX003 (ip), vehicle: acetone): 92 % of control | T/C (dose: 50.0 mg/kg/injection, schedule: Q01DX009 (ip), vehicle: saline): 86 % of control | T/C (dose: 50.0 mg/kg/injection, schedule: Q04DX003 (ip), vehicle: acetone): 100 % of control | T/C (dose: 100.0 mg/kg/injection, schedule: Q01DX001 (ip), vehicle: acetone): 90 % of control

CC1(C)Cc2ccccc2C(c2nccc3ccccc23)=N1
T/C [7]: 106 % of control | T/C [9]: 118 % of control | T/C [8]: 102 % of control

C[P+]1(c2ccccc2)CCC(N)=C(C#N)C1 (stereo unspecified)
T/C [1]: 100 % of control

Cn1c(=O)c(Br)c(N)c2ccccc21
T/C (dose: 100.0 mg/kg/injection, schedule: Q01DX001 (ip), vehicle: other): 101 % of control | T/C (dose: 200.0 mg/kg/injection, schedule: Q01DX001 (ip), vehicle: other): 101 % of control | T/C (dose: 400.0 mg/kg/injection, schedule: Q01DX001 (ip), vehicle: other): 101 % of control

CN(N=O)c1ccc(N(C)N=O)cc1
T/C [6]: 100 % of control | T/C (dose: 100.0 mg/kg/injection, schedule: Q01DX009 (ip), vehicle: Klucel (hydroxypropylcellulose) (HPC)): 97 % of control | T/C [7]: 96 % of control | T/C (dose: 200.0 mg/kg/injection, schedule: Q01DX009 (ip), vehicle: Klucel (hydroxypropylcellulose) (HPC)): 102 % of control | T/C [9]: 93 % of control | T/C (dose: 400.0 mg/kg/injection, schedule: Q01DX009 (ip), vehicle: Klucel (hydroxypropylcellulose) (HPC)): 92 % of control | T/C [8]: 96 % of control
